In ChEMBL document CHEMBL3785024 (Br J Clin Pharmacol, 2004):

Experiments:
Type in all cases: ADME, organism-based
[1] = Cmax in healthy human subjects at 40 mg with water administered as single dose measured upto 24 hrs by LC-MS analysis; design: dose 40 mg; conditions: in vivo, oral
[2] = Elimination half life in healthy human subjects at 40 mg with water administered as single dose measured upto 24 hrs by LC-MS analysis; conditions: in vivo, oral, read-out: beta t1/2 (converted)
[3] = AUC (0 to 24 hrs) in healthy human subjects at 40 mg with water administered as single dose measured upto 24 hrs by LC-MS analysis; design: time < 24 hr, dose 40 mg; conditions: in vivo, oral
Homo sapiens [4] = experiment: Cmax in healthy human subjects assessed as simvastatin acid at 40 mg with water administered as single dose measured upto 24 hrs by LC-MS analysis; design: dose 40 mg; conditions: in vivo, po
Homo sapiens [5] = experiment: Elimination half life in healthy human subjects assessed as simvastatin acid at 40 mg with water administered as single dose measured upto 24 hrs by LC-MS analysis; conditions: in vivo
Homo sapiens [6] = experiment: AUC (0 to 24 hrs) in healthy human subjects assessed as simvastatin acid at 40 mg with water administered as single dose measured upto 24 hrs by LC-MS analysis; design: dose 40 mg, time < 24 hr; conditions: in vivo, po
[7] = Cmax in healthy human subjects at 40 mg with 200 ml grape fruit juice drug administered as single dose on day 3 of grape fruit juice challenge measured upto 24 hrs by LC-MS analysis; design: dose 40 mg; conditions: in vivo, oral
[8] = Elimination half life in healthy human subjects at 40 mg with 200 ml grape fruit juice drug administered as single dose on day 3 of grape fruit juice challenge measured upto 24 hrs by LC-MS analysis; conditions: in vivo, oral, read-out: beta t1/2 (converted)
[9] = AUC (0 to 24 hrs) in healthy human subjects at 40 mg with 200 ml grape fruit juice drug administered as single dose on day 3 of grape fruit juice challenge measured upto 24 hrs by LC-MS analysis; design: dose 40 mg, time < 24 hr; conditions: in vivo, oral
Homo sapiens [10] = experiment: Cmax in healthy human subjects assessed as simvastatin acid at 40 mg with 200 ml grape fruit juice drug administered as single dose on day 3 of grape fruit juice challenge measured upto 24 hrs by LC-MS analysis; design: dose 40 mg; conditions: in vivo
Homo sapiens [11] = experiment: Elimination half life in healthy human subjects assessed as simvastatin acid at 40 mg with 200 ml grape fruit juice drug administered as single dose on day 3 of grape fruit juice challenge measured upto 24 hrs by LC-MS analysis; conditions: in vivo
Homo sapiens [12] = experiment: AUC (0 to 24 hrs) in healthy human subjects assessed as simvastatin acid at 40 mg with 200 ml grape fruit juice drug administered as single dose on day 3 of grape fruit juice challenge measured upto 24 hrs by LC-MS analysis; design: time < 24 hr, dose 40 mg; conditions: in vivo

Cmax [1]: 7.3 ng/mL
half-life [2]: 2.7 h
AUC(0-t) at 24 h [3]: 31.6 ng·h/mL
Cmax (Homo sapiens [4]): 2.6 ng/mL
beta t1/2 (Homo sapiens [5]): 2.9 h
AUC (Homo sapiens [6]): 18.5 ng·h/mL
Cmax [7]: 28.5 ng/mL
half-life [8]: 2 h
AUC(0-t) at 24 h [9]: 112 ng·h/mL
Cmax (Homo sapiens [10]): 11.1 ng/mL
beta t1/2 (Homo sapiens [11]): 2.4 h
AUC (Homo sapiens [12]): 62 ng·h/mL
SMILES: CCC(C)(C)C(=O)O[C@H]1C[C@@H](C)C=C2C=C[C@H](C)[C@H](CC[C@@H]3C[C@@H](O)CC(=O)O3)[C@H]21 [SIMVASTATIN]
